pEC50: −log10 of the molar value. Values after ≈ are worked out from the molar mass of the structure shown.
What was measured:
[1] = molecular target: T1, Free fatty acid receptor 1 (Homo sapiens, UniProt O14842); assay: Agonist activity at GPR40 receptor; format: functional
[2] = molecular target: T1, Free fatty acid receptor 1; assay: Agonist activity at GPR40 receptor expressed in CHO cells by reporter gene assay; format: functional, cell-based
[3] = Solubility at pH 7.4; format: physicochemical; conditions: buffer
[4] = Distribution coefficient, log D at pH 7.4; format: physicochemical; conditions: octanol/water

T1 sequence (O14842 whole entry): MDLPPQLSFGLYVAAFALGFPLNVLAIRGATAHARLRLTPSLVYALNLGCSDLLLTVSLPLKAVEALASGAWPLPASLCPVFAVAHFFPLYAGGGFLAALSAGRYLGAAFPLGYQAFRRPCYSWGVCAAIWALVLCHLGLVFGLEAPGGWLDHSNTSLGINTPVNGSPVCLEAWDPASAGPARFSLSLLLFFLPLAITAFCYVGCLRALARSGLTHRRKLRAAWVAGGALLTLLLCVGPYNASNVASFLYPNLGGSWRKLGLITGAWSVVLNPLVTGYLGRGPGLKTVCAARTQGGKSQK

Compound: O=C(O)CCc1ccc(NCc2ccccc2)cc1
- pEC50 [1]: 5.10
- %max [2]: 144%

Compound: CS(=O)(=O)Nc1cccc(CNc2ccc(CCC(=O)O)cc2)c1
- %max [2]: 9%

Compound: CC(C(=O)O)c1ccc(NCc2ccc(-c3ccccc3)cc2)cc1 (stereo unspecified)
- %max [2]: 21%

Compound: O=C(O)CCc1ccc(NCc2ccc3ccccc3c2)cc1
- pEC50 [1]: 6.10
- %max [2]: 123%

Compound: O=C(O)CCc1ccc(NCc2ccc(Cl)c(Cl)c2)cc1
- pEC50 [1]: 6.60
- %max [2]: 117%

Compound: N#Cc1ccc(CNc2ccc(CCC(=O)O)cc2)cc1
- %max [2]: 49%

Compound: O=C(O)CCc1ccc(NCc2ccc(Cl)cc2)cc1
- pEC50 [1]: 6.00
- solubility [3]: 830 µg/mL (≈ 2860 µM)
- logD [4]: 0.98
- %max [2]: 111%

Compound: O=C(O)CCc1ccc(NCc2cccc(F)c2)cc1
- pEC50 [1]: 5.30
- %max [2]: 120%

Compound: COc1ccc(CNc2ccc(CCC(=O)O)cc2)cc1
- pEC50 [1]: 5.90
- %max [2]: 159%

Compound: O=C(O)CCc1cccc(NCc2cccc(Oc3ccccc3)c2)c1
- pEC50 [1]: 6.40
- %max [2]: 148%

Compound: O=C(O)CCc1ccc(NCc2ccc(C(=O)O)cc2)cc1
- %max [2]: 9%

Compound: NC(=O)c1cccc(CNc2ccc(CCC(=O)O)cc2)c1
- %max [2]: 18%

Compound: O=C(O)CCc1ccc(NCc2ccc(Oc3ccccc3)cc2)cc1
- pEC50 [1]: 6.71
- %max [2]: 139%

Compound: O=C(O)CCc1cccc(NCc2ccc(-c3ccccc3)cc2)c1
- pEC50 [1]: 6.30
- %max [2]: 160%

Compound: O=C(O)Cc1ccc(NCc2cccc(Oc3ccccc3)c2)cc1
- pEC50 [1]: 5.40
- %max [2]: 32%

Compound: O=C(O)CCc1ccc(NCc2ccc3c(c2)OCO3)cc1
- %max [2]: 141%

Compound: O=C(O)CCCc1ccc(NCc2ccc(-c3ccccc3)cc2)cc1
- pEC50 [1]: 5.80
- %max [2]: 62%

Compound: O=C(O)CCc1ccc(NCc2cccc(Br)c2)cc1
- pEC50 [1]: 6.10
- %max [2]: 120%

Compound: O=C(O)CCCc1ccc(NCc2cccc(Oc3ccccc3)c2)cc1
- pEC50 [1]: 5.50
- %max [2]: 74%

Compound: O=C(O)CCc1ccc(NCc2ccccc2Cl)cc1
- pEC50 [1]: 5.40
- %max [2]: 122%

Compound: O=C(O)Cc1ccc(NCc2ccc(-c3ccccc3)cc2)cc1
- pEC50 [1]: 4.91
- %max [2]: 69%

Compound: O=C(O)C1CC1c1ccc(NCc2cccc(Oc3ccccc3)c2)cc1 (stereo unspecified)
- pEC50 [1]: 7.30
- %max [2]: 74%

Compound: CC(C(=O)O)c1ccc(NCc2cccc(Oc3ccccc3)c2)cc1 (stereo unspecified)
- pEC50 [1]: 4.78
- %max [2]: 34%

Compound: O=C(O)CCc1ccc(NCc2ccc(O)cc2)cc1
- %max [2]: 37%

Compound: O=C(O)CCc1ccc(NCc2cc(C(F)(F)F)cnc2Cl)cc1
- pEC50 [1]: 5.30
- %max [2]: 112%

Compound: O=C(O)CCc1ccc(NCc2ccc(Cl)s2)cc1
- %max [2]: 143%

Compound: O=C(O)CCc1ccc(NCc2ncc[nH]2)cc1
- %max [2]: 4%

Compound: O=C(O)C1CC1c1ccc(NCc2ccc(-c3ccccc3)cc2)cc1 (stereo unspecified)
- pEC50 [1]: 7.40
- %max [2]: 80%

Compound: O=C(O)CCc1ccc(NCc2cccnc2)cc1
- %max [2]: 4%

Compound: O=C(O)CCc1ccc(NCc2ccc(-c3ccccc3)cc2)cc1
- pEC50 [1]: 6.60
- %max [2]: 111%

Compound: Cc1ccc(CNc2ccc(CCC(=O)O)cc2)cc1
- pEC50 [1]: 5.40
- %max [2]: 152%

Compound: O=C(O)CCc1ccc(NCc2ccc(C(F)(F)F)cc2)cc1
- %max [2]: 133%

Compound: CN(C)Cc1ccc(CNc2ccc(CCC(=O)O)cc2)cc1
- %max [2]: 12%

From ChEMBL document CHEMBL1146379, “Solid phase synthesis and SAR of small molecule agonists for the GPR40 receptor” (Bioorg Med Chem Lett, 2007)
